Assays:
[1] = target: T1, Glucocorticoid receptor (Homo sapiens, UniProt P04150); conditions: hela s3; further: in other assays of this panel Not Active means under 50% inhibition at 10 µM
T1 sequence (P04150 whole entry): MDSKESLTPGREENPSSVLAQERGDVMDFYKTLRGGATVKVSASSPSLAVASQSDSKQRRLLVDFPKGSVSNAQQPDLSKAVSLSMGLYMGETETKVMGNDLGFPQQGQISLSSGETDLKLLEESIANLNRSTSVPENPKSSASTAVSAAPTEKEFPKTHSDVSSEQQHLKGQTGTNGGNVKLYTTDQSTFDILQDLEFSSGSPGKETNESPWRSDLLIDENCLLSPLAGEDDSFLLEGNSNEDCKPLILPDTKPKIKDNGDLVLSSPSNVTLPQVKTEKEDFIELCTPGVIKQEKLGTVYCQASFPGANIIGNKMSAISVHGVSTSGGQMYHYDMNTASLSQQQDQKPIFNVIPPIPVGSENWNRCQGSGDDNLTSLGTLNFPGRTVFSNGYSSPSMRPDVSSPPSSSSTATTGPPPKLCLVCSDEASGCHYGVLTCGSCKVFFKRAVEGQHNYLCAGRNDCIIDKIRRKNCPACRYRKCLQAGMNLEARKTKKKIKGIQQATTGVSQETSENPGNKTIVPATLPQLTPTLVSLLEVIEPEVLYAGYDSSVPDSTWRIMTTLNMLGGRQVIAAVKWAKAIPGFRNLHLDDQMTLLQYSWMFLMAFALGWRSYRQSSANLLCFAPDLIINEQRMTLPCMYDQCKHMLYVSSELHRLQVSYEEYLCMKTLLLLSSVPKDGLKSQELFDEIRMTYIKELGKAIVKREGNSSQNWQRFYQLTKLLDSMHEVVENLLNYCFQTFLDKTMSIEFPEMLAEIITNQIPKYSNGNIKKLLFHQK

[2] = target: Cytochrome P450 2D6 (Homo sapiens, UniProt P10635); conditions: bti-tn-5b1-4; further: in other assays of this panel Not Active means under 50% inhibition at 10 µM
[3] = target: Estrogen receptor beta (Homo sapiens, UniProt Q92731); conditions: sf9; further: in other assays of this panel Not Active means under 50% inhibition at 10 µM
[4] = target: Cytochrome P450 3A4 (Homo sapiens, UniProt P08684); conditions: bti-tn-5b1-4; further: in other assays of this panel Not Active means under 50% inhibition at 10 µM
[5] = target: Cytochrome P450 2C9 (Homo sapiens, UniProt P11712); conditions: bti-tn-5b1-4; further: in other assays of this panel Not Active means under 50% inhibition at 10 µM
[6] = target: Cytochrome P450 2C19 (Homo sapiens, UniProt P33261); conditions: bti-tn-5b1-4; further: in other assays of this panel Not Active means under 50% inhibition at 10 µM
[7] = target: Voltage-gated inwardly rectifying potassium channel KCNH2 (Homo sapiens, UniProt Q12809); conditions: hek293; further: in other assays of this panel Not Active means under 50% inhibition at 10 µM
[8] = target: T2, Estrogen receptor (Homo sapiens, UniProt P03372); conditions: sf9; further: in other assays of this panel Not Active means under 50% inhibition at 10 µM
T2 sequence (P03372 whole entry): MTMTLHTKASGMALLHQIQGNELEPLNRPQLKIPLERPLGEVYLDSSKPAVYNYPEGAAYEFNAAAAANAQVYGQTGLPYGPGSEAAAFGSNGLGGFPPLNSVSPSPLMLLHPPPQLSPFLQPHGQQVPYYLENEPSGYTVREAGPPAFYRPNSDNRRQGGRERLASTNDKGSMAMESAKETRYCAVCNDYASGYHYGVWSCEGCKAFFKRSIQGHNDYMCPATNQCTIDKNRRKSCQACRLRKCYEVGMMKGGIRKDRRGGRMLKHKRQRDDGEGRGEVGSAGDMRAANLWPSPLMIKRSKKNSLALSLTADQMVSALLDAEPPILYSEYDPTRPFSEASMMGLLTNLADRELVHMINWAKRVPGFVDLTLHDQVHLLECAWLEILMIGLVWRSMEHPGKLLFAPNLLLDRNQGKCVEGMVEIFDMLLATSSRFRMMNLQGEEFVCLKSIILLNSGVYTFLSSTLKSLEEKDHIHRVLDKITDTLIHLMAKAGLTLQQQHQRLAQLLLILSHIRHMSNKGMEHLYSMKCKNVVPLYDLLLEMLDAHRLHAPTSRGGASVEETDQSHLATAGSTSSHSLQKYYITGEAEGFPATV

[9] = target: Sodium-dependent noradrenaline transporter (Homo sapiens, UniProt P23975); assay: DRUGMATRIX: Norepinephrine Transporter radioligand binding (ligand: [125I] RTI-55); assay type: cell membranes, MDCK, Membrane; conditions: Not Active = under 50% inhibition at 10 µM
[10] = target: T3, Cytochrome P450 1A2 (Homo sapiens, UniProt P05177); conditions: bti-tn-5b1-4; further: in other assays of this panel Not Active means under 50% inhibition at 10 µM
T3 sequence (P05177 whole entry): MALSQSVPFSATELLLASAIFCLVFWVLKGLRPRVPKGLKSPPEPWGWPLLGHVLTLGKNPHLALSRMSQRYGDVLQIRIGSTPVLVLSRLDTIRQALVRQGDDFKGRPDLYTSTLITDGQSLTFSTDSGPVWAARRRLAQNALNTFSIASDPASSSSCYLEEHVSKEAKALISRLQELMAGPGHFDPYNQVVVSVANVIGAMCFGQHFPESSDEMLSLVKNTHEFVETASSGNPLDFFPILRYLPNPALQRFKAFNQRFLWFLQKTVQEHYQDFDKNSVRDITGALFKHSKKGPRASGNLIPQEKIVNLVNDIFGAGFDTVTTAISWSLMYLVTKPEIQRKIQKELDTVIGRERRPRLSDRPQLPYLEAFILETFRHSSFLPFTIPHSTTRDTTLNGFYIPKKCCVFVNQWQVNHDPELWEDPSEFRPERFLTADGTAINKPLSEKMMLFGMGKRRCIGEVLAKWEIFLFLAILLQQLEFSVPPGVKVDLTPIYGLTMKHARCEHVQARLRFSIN

Sequence of Cytochrome P450 2C19 (P33261 whole entry): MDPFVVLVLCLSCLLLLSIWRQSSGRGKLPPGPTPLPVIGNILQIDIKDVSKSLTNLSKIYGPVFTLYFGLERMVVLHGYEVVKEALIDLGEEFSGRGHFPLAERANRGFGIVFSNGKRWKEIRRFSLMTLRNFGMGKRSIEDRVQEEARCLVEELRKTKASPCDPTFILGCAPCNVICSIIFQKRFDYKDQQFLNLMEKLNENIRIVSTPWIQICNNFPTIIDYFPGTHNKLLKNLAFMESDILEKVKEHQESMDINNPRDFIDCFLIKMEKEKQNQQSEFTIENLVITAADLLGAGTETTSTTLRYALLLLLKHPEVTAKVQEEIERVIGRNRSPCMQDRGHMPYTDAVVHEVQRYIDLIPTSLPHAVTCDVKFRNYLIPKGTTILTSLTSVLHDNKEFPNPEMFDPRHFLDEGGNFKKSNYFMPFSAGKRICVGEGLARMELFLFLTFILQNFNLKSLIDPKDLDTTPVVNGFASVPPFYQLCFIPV
Sequence of Voltage-gated inwardly rectifying potassium channel KCNH2 (Q12809 whole entry): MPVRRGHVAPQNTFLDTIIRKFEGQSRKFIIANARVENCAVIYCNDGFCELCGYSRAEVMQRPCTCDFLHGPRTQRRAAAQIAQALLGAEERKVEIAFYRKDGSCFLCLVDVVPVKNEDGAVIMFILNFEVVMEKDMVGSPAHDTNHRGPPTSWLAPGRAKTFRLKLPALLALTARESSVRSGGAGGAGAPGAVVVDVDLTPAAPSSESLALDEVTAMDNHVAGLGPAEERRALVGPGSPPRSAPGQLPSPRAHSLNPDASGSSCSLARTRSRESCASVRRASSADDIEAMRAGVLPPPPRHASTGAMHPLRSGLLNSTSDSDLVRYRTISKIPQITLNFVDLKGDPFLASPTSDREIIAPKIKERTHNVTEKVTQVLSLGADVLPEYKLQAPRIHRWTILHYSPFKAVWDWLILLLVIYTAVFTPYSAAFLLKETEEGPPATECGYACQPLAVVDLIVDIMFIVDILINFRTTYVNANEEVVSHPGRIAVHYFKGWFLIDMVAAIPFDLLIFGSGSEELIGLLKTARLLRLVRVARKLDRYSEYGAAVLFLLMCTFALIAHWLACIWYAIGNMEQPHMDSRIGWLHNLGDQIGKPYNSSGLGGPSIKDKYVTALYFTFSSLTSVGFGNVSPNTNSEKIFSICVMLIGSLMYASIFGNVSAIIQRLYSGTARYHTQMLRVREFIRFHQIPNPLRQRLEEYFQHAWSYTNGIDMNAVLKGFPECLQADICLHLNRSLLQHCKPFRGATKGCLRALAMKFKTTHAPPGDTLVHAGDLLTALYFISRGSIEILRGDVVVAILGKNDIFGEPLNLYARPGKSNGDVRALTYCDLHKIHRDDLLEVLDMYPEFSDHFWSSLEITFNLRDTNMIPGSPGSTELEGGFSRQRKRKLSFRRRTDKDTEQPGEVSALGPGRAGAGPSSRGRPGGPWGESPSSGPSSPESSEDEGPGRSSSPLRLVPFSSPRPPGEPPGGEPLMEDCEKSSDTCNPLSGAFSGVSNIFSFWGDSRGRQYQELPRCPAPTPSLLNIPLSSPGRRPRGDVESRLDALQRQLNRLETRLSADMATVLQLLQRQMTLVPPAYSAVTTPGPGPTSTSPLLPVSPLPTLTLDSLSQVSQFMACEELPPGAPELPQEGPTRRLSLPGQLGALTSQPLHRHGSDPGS
Sequence of Cytochrome P450 2D6 (P10635 whole entry): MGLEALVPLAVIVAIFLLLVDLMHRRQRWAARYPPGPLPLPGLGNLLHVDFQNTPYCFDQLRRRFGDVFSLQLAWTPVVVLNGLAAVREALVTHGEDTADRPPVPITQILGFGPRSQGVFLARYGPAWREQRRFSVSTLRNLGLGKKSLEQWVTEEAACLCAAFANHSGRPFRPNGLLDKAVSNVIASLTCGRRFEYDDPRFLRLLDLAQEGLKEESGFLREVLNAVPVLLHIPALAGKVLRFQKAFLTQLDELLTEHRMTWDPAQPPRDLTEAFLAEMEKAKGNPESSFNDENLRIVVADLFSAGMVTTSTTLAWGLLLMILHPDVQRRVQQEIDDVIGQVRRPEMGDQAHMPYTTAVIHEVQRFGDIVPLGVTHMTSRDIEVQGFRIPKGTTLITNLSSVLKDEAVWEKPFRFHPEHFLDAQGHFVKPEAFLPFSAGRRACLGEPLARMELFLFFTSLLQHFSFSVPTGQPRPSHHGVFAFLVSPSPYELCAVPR
Sequence of Cytochrome P450 3A4 (P08684 whole entry): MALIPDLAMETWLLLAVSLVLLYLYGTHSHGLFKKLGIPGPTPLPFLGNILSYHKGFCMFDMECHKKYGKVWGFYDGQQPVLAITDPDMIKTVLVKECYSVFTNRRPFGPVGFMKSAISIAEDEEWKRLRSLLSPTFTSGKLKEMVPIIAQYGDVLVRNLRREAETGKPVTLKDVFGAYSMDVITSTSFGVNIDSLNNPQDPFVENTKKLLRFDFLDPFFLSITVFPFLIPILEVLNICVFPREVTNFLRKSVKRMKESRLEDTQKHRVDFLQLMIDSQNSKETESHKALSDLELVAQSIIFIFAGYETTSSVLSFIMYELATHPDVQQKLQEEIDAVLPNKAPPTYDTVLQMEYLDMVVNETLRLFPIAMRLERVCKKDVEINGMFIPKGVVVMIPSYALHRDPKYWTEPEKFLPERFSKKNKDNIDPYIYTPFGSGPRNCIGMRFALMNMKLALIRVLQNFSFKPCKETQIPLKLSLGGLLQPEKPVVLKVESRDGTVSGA
Sequence of Estrogen receptor beta (Q92731 whole entry): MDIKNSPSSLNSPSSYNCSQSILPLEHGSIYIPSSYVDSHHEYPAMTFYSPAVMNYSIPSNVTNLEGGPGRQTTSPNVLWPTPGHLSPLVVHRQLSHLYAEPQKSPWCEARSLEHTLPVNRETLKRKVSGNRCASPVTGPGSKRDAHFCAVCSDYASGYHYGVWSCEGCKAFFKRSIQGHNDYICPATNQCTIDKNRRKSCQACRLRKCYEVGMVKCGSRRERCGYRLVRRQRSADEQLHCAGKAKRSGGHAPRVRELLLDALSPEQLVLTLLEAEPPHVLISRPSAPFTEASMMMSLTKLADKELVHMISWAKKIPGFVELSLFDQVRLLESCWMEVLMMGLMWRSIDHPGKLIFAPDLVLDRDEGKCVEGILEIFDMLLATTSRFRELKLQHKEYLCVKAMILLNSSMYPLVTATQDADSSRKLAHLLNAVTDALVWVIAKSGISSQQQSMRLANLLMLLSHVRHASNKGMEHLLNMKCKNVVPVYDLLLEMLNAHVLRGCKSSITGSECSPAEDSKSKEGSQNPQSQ
Sequence of Sodium-dependent noradrenaline transporter (P23975 whole entry): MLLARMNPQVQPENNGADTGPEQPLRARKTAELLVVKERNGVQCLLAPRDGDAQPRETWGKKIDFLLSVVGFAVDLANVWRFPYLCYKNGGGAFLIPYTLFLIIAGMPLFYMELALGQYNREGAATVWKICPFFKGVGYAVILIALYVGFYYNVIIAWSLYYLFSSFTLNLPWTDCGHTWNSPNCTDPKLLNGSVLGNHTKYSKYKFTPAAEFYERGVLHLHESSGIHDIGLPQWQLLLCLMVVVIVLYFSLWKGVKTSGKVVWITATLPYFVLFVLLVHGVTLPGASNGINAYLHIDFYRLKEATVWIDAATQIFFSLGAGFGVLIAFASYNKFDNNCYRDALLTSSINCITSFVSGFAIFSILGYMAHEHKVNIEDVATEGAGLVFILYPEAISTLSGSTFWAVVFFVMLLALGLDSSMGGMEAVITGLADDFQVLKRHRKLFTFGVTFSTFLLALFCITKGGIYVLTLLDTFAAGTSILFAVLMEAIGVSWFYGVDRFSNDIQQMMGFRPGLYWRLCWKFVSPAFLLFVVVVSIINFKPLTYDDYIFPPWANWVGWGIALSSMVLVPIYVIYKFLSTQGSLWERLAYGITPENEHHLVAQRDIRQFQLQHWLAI
Sequence of Cytochrome P450 2C9 (P11712 whole entry): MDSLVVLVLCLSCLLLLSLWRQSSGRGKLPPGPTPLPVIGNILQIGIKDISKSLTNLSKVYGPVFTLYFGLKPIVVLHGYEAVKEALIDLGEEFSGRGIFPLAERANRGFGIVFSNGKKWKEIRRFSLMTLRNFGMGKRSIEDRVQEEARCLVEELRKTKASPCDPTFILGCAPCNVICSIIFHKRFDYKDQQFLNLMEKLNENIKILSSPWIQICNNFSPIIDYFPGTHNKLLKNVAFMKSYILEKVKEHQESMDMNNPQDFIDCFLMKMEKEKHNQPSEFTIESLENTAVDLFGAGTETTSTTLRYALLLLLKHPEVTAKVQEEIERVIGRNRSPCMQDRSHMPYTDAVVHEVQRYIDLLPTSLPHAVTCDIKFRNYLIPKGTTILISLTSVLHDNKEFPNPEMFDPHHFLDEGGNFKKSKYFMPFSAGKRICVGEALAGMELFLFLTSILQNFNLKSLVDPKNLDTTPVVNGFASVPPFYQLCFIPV

| Structure (SMILES) | IC50 [1] | IC50 [2] | Ki [2] | IC50 [3] | IC50 [4] | Ki [4] | IC50 [5] | Ki [5] | IC50 [6] | Ki [6] | IC50 [7] | Ki [7] | IC50 [8] | IC50 ([9]; mdck) | IC50 [10] | Ki [10] | IC50 ([9]; read-out: IC50) | Ki ([9]; read-out: Ki) |
| --- | --- | --- | --- | --- | --- | --- | --- | --- | --- | --- | --- | --- | --- | --- | --- | --- | --- | --- |
| CN1CCN2c3ccccc3Cc3ccccc3C2C1 (centres undefined) [MIANSERIN] | Not Active | Not Active | Not Active | Not Active | Not Active | Not Active | Not Active | Not Active | Not Active | Not Active | Not Active | Not Active | Not Active | – | – | – | – | – |
| Nc1ccc(S(=O)(=O)Nc2ccnn2-c2ccccc2)cc1 [SULFAPHENAZOLE] | Not Active | Not Active | Not Active | Not Active | Not Active | Not Active | – | – | Not Active | Not Active | Not Active | Not Active | Not Active | Not Active | Not Active | Not Active | – | – |
| CC(CCc1ccccc1)NCC(O)c1ccc(O)c(C(N)=O)c1 (centres undefined) [LABETALOL] | Not Active | – | – | Not Active | Not Active | Not Active | Not Active | Not Active | – | – | Not Active | Not Active | Not Active | – | Not Active | Not Active | 3.35 µM | 3.33 µM |
| COc1c(C)c2c(c(O)c1C/C=C(\C)CCC(=O)OCCN1CCOCC1)C(=O)OC2 [MYCOPHENOLATE MOFETIL] | Not Active | Not Active | Not Active | Not Active | Not Active | Not Active | Not Active | Not Active | Not Active | Not Active | Not Active | Not Active | Not Active | Not Active | Not Active | Not Active | – | – |
| CN[C@H](CC(C)C)C(=O)N[C@H]1C(=O)N[C@@H](CC(N)=O)C(=O)N[C@H]2C(=O)N[C@H]3C(=O)N[C@H](C(=O)N[C@H](C(=O)O)c4cc(O)cc(O)c4-c4cc3ccc4O)[C@H](O)c3ccc(c(Cl)c3)Oc3cc2cc(c3O[C@@H]2O[C@H](CO)[C@@H](O)[C@H](O)[C@H]2O[C@H]2C[C@](C)(N)[C@H](O)[C@H](C)O2)Oc2ccc(cc2Cl)[C@H]1O [VANCOMYCIN] | Not Active | Not Active | Not Active | Not Active | Not Active | Not Active | – | – | Not Active | Not Active | Not Active | Not Active | Not Active | Not Active | Not Active | Not Active | – | – |
| c1ccc2[nH]c(-c3cscn3)nc2c1 [THIABENDAZOLE] | Not Active | Not Active | Not Active | Not Active | – | – | Not Active | Not Active | Not Active | Not Active | Not Active | Not Active | Not Active | Not Active | – | – | – | – |
| CC(C)(O)c1ccccc1CC[C@@H](SCC1(CC(=O)O)CC1)c1cccc(/C=C/c2ccc3ccc(Cl)cc3n2)c1 [MONTELUKAST] | Not Active | Not Active | Not Active | Not Active | Not Active | Not Active | Not Active | Not Active | Not Active | Not Active | Not Active | Not Active | Not Active | – | Not Active | Not Active | – | – |
| CCOC(=O)[C@H](CCc1ccccc1)N[C@@H](C)C(=O)N1[C@H](C(=O)O)C[C@@H]2CCC[C@@H]21 | Not Active | Not Active | Not Active | Not Active | – | – | Not Active | Not Active | Not Active | Not Active | Not Active | Not Active | Not Active | Not Active | Not Active | Not Active | – | – |
| COC(=O)C1=C(C)NC(C)=C(C(=O)OC)C1c1ccccc1[N+](=O)[O-] [NIFEDIPINE] | Not Active | – | – | Not Active | – | – | – | – | – | – | – | – | Not Active | Not Active | – | – | – | – |
| C=CC[C@@H]1/C=C(\C)C[C@H](C)C[C@H](OC)[C@H]2O[C@@](O)(C(=O)C(=O)N3CCCC[C@H]3C(=O)O[C@H](/C(C)=C/[C@@H]3CC[C@@H](O)[C@H](OC)C3)[C@H](C)[C@@H](O)CC1=O)[C@H](C)C[C@@H]2OC [TACROLIMUS ANHYDROUS] | Not Active | Not Active | Not Active | Not Active | – | – | Not Active | Not Active | Not Active | Not Active | Not Active | Not Active | Not Active | Not Active | Not Active | Not Active | – | – |
| COC(=O)c1ccc(O)cc1 [METHYLPARABEN] | Not Active | Not Active | Not Active | Not Active | Not Active | Not Active | Not Active | Not Active | Not Active | Not Active | Not Active | Not Active | Not Active | – | Not Active | Not Active | – | – |

— ChEMBL document CHEMBL1909046, “DrugMatrix in vitro pharmacology data”
